From article PMC12035797, “Peptidomimetics Activating the Proteasome: A New Perspective for Parkinson’s Treatment” (Journal of Medicinal Chemistry, 2025)

Legend:
[1] = PAMPA, blood–brain barrier mimic; assay type: in vitro ADME; settings: 500 μM, 37 °C, 22 h
Excerpt: In neurodegenerative diseases, proteins prone to aggregation accumulate in the neuronal cells. Therefore, a necessary feature of potential drugs is not only permeability across the cell membrane but also the ability to cross the blood-brain barrier (BBB). To preliminarily investigate this feature, we performed parallel artificial membrane permeation assays (PAMPA) including as positive controls propranolol and Tat47-57, known for their ability to penetrate the blood-brain barrier. Dopamine hydrobromide was included as a negative control. For comparison, we also tested compound 1a, which is devoid of a CPP sequence. […] The PAMPA was performed as previously described.[21] Briefly, a 2% solution of porcine brain lipid membrane (PBL; Avanti Polar Lipids Inc., Alabaster, AL, USA) in anhydrous dodecane was used as a mimic of the blood-brain barrier. Propranolol hydrochloride (Merck, Darmstadt, Germany) and Tat47-57 (synthesized in-house) served as positive controls, while dopamine hydrobromide (Merck, Darmstadt, Germany) was used as a negative control. Stock solutions of the tested compounds and controls were prepared at a concentration of 10 mM in deionized water and then diluted to 500 μM using 0.1 M PBS containing 5% DMSO. The donor-acceptor plate assembly was incubated at 37 °C while being shaken at 250 rpm for 22 h. Absorbance at 290 nm was measured for propranolol using an Infinite […] plate reader (Infinite […] plate reader, Tecan). For the other samples, fluorescence measurements were performed after the compounds were reacted with 0.02% fluorescamine. The rate of passive diffusion was calculated as the linear velocity of permeation (Pe). The data represent an average of three independent biological replicates.

[2] = tested on: hippocampal neurons containing Lewy body-like pS129-αsyn aggregates; assay: pS129-α-synuclein aggregates in PFF-treated hippocampal neurons; assay type: cell-based, mouse; settings: 7 days after PFFs
Excerpt: Encouraged by the results received, we tested the ability of the modulator-CPP constructs to increase α-synuclein degradation in a cell model using primary mouse neuronal cells. The presence of Lewy-like neurites and Lewy-like bodies containing aggregated α-synuclein with phosphorylated serine 129 (pS129-αsyn) is a characteristic feature of the brains of people with Parkinson’s disease. To mimic these aggregations, we introduced a solution of preformed fibrils (PFFs) to the media of neuronal cells, which led to the induction of α-synuclein phosphorylation and its aggregation in neurons isolated from mouse embryos. PFFs are purified, prion-like fibrils of α-synuclein that are produced by expressing a recombinant monomeric protein in bacteria. Seven days after PFFs are introduced to the cells, large aggregates are visible in the cell soma, often next to the cell nucleus. We added the PFF solution to the hippocampal cells, and after an hour of incubation, we introduced solutions of the activator. After 7 days, we immunostained neuronal cells using a monoclonal antibody against the NeuN protein, which is commonly used in neuronal differentiation studies to assess their functional status. Additionally, we stained the nuclei of all incubated cells with DAPI. […] It is noteworthy that the number of cells in samples with activators was slightly higher (Figure 5), which may indicate neuroprotective properties. […] The main tool for monitoring this process was an antibody against pS129-αsyn. […] The fluorescent microscopy images (Figure 5) show the difference between the amounts of aggregated protein in the control sample and in the samples containing activators at different concentrations.
Cells were isolated from pregnant mouse embryos at E16.0 and plated on precoated with poly-L-lysine wells of 96-well plates (PerkinElmer/Revvity Inc., Waltham, MA, USA) at 25,000 cells/well. The final medium volume was 150 μL/well. Cells were incubated at 37 °C, 5% CO2. […]

[3] = tested on: T1, proteasome in HEK293T cell lysate; assay: Proteasome activity in the HEK293T cell lysate, Suc-LLVY-AMC; assay type: biochemical, human
T1 construct: endogenous in cells; host or cells: HEK293T cell lysate
Protocol: To assess whether activators are able to stimulate the proteasome in the cellular environment, we conducted experiments using the HEK293T cell lysate. […] The experiment was carried out as it was described.[25] Briefly, HEK293T cells were lysed, and the lysate was treated with the modulators at a concentration of 1, 2.5, 5, 10, and 25 μM, only in the case of modulators with the TAT or 6R sequence attached were the concentrations 0.5, 1, 2.5, 5, and 10 μM. The proteasome activity was probed using Suc-LLVY-AMC substrate. One μM bortezomib was used as a negative control. All experiments were performed in at least three independent replicates. One-way ANOVA with Tukey’s post-hoc test was used to determine statistical significance.

C[C@@H](O)[C@H](NC(=O)[C@H](Cc1ccccc1)NC(=O)[C@H](Cc1ccc(O)cc1)NC(=O)CN(CCCCN)C(=O)[C@H](CCCNC(=N)N)NC(=O)[C@H](CCCNC(=N)N)NC(=O)[C@H](CCCNC(=N)N)NC(=O)[C@H](CCC(N)=O)NC(=O)[C@H](CCCNC(=N)N)NC(=O)[C@H](CCCNC(=N)N)NC(=O)[C@H](CCCCN)NC(=O)[C@H](CCCCN)NC(=O)[C@@H](N)CCCNC(=N)N)C(=O)NCC(=O)N[C@@H](CO)C(=O)N[C@@H](CCCCN)C(=O)N[C@@H](CC(=O)O)C(=O)N[C@@H](Cc1c[nH]c2ccccc12)C(=O)N[C@@H](CCCNC(=N)N)C(=O)N[C@@H](CO)C(=O)N[C@@H](Cc1ccc(O)cc1)C(=O)N[C@@H](Cc1ccc(O)cc1)C(=O)N[C@@H](CO)C(=O)O [1f]
permeability across artificial BBB membrane, PAMPA [1]: had the ability to penetrate the artificial membrane mimicking the BBB | effect on hippocampal cells containing α-synuclein aggregates ([2]; 0.5 and 2.5 μM): effectively reduced the number of hippocampal cells containing α-synuclein | reduction of the number of aggregates formed ([2]; very low concentration): 50% | activation of the proteasome in HEK293T cell lysate ([3]; 5 μM): approximately 4 fold | efficacy in HEK293T cell lysate ([3]; compared with 1a): higher efficacy than their parent compound 1a
